{"source": "paper PMC6277767", "about": "“Broad and Region-Specific Impacts of the Synthetic Cannabinoid CP 55,940 in Adolescent and Adult Female Mouse Brains” (Frontiers in Molecular Neuroscience, 2018)", "experiment": "CP 55,940 levels in eight brain regions 2 h after single i.p. 3 mg/kg injection (HPLC/MS/MS)", "assay_type": "in vivo, mouse", "details": "for CP 55,940 Direction (relative to Veh) / CP 55,940 Magnitude (x Veh level): p .000", "protocol": "The Bloomington Institutional Animal Care and Use Committee of Indiana University reviewed and approved the animal procedures. Female mice from the CD1 strain were utilized to match our study examining THC’s effects on the brain lipidome ([Leishman et al., 2018]). Mice were given a single i.p. injection of either 3 mg/kg CP or 1:1:18 cremophor:ethanol:saline vehicle (please refer to the section “3 mg/kg CP Is Relevant for Synthetic Cannabinoid Abuse and Has Stronger Effects on the Female Mouse Brain Lipidome During Adolescence” for a justification of dose and use of female mice). Three different age groups were given injections: PND 35 and PND 50 adolescents, and adult mice (PND 113). At least eight mice in each age group received CP and at least eight received vehicle. Matching the THC study time course ([Leishman et al., 2018]), mice were sacrificed via rapid decapitation 2 h after injection. Brains were immediately removed and flash-frozen in liquid nitrogen, and then stored at -80°C until dissections were performed. Brains were dissected on an ice-cold dissection plate into the following regions: STR, HIPP, CER, THAL, CTX, HYP, MID, and STEM. These abbreviations for these brain areas will be used exclusively when discussing the results generated by these specific dissections. Each dissected area was immediately placed in liquid nitrogen and then stored at -80°C until used for lipid extraction.\nTissue extracts were performed as previously described ([Bradshaw et al., 2006]; [Stuart et al., 2013]; [Raboune et al., 2014]; [Leishman et al., 2016a],[b], [2017], [2018]). First, samples were shock frozen in liquid nitrogen, weighed, and transferred to a centrifuge tube. The mass of the largest sample was multiplied by 50 to determine how many milliliters of HPLC-grade methanol (Fisher, Fair Lawn, NJ, United States) to add. Then, samples were spiked with 500 pmol deuterium-labeled NAGly (d8NAGly; Cayman Chemical, Ann Arbor, MI, United States). Samples were placed on ice in darkness for 2 h then individually homogenized and centrifuged at 19,000 × g for 20 min at 20°C. Supernatants were diluted with HPLC water (purified in house) to make a solution of 75% water, 25% supernatant. Lipids were partially purified on C18 solid phase extraction columns (Agilent, Palo Alto, CA, United States). A series of four elutions with 1.5 mL of 60%, 75%, 85%, and 100% methanol were collected ([Stuart et al., 2013]; [Leishman et al., 2016a],[b], [2018]).\nAs previously described ([Bradshaw et al., 2006]; [Tan et al., 2006]; [Smoum et al., 2010]; [Stuart et al., 2013]; [Tortoriello et al., 2013]; [Raboune et al., 2014]; [Leishman et al., 2016a],[b], [2017], [2018]), samples were analyzed using an Applied Biosystems API 3000 triple quadrupole mass spectrometer with electrospray ionization (Foster City, CA, United States). Using an Agilent XDB-C18 reversed phase analytical column and optimized mobile phase gradients, 20 μL from each elution were chromatographed. Two Shimadzu 10ADvp pumps (Columbia, MD, United States) provided the pressure for gradient elution. Mobile phase A: 20% methanol, 80% water (v/v) and 1 mM ammonium acetate (Sigma, St. Louis, MO, United States). Mobile phase B: 100% methanol, 1 mM ammonium acetate. Every method run began with 0% mobile phase B, reached 100% mobile phase B flowing at 0.2 mL/min, and gradually returned to 0% mobile phase B.\nThis screening library will be referred to as the lipidome when discussing data from this study. HPLC/MS/MS data were analyzed using Analyst software (Applied Biosystems) ([Bradshaw et al., 2006]; [Tan et al., 2006]; [Stuart et al., 2013]; [Tortoriello et al., 2013]; [Raboune et al., 2014]; [Leishman et al., 2016a],[b], [2017], [2018]). Chromatograms (Supplementary Figure 3) were generated by determining the retention time of analytes from the analytical column with a [M-1] or [M+1] parent peak and a fragmentation peak corresponding to the programmed values. […]", "key": {"[1]": {"details": "adult brainstem, 3mg/kg CP 55,940"}, "[2]": {"details": "adult cortex, 3 mg/kg CP 55,940"}, "[3]": {"details": "adult hypothalamus, 3mg/kg CP 55,940"}, "[4]": {"details": "adult midbrain, 3mg/kg CP 55,940"}, "[5]": {"details": "brainstem, PND35, 3 mg/kg CP 55,940 vs Veh"}}, "data": [{"smiles": "CCCCCCC(C)(C)c1ccc([C@@H]2C[C@H](O)CC[C@H]2CCCO)c(O)c1", "note": "[CP 55,940]", "values": [{"measurement": "brain area with highest levels of CP", "setting": "PND 35", "result": "CTX"}, {"measurement": "CP 55,940 level, Mean", "setting": "PND 35, CER, 2 hours after acute 3 mg/kg injection", "result": "7.2155E-011"}, {"measurement": "CP 55,940 level, Mean", "setting": "PND 35, CTX, 2 hours after acute 3 mg/kg injection", "result": "1.1107E-010"}, {"measurement": "CP 55,940 level, Mean", "setting": "PND 35, HIPP, 2 hours after acute 3 mg/kg injection", "result": "9.6303E-011"}, {"measurement": "CP 55,940 level, Mean", "setting": "PND 35, HYP, 2 hours after acute 3 mg/kg injection", "result": "5.3113E-011"}, {"measurement": "CP 55,940 level, Mean", "setting": "PND 35, MID, 2 hours after acute 3 mg/kg injection", "result": "7.9142E-011"}, {"measurement": "CP 55,940 level, Mean", "setting": "PND 35, STEM, 2 hours after acute 3 mg/kg injection", "result": "7.0414E-011"}, {"measurement": "CP 55,940 level, Mean", "setting": "PND 35, STR, 2 hours after acute 3 mg/kg injection", "result": "5.7413E-011"}, {"measurement": "CP 55,940 level, Mean", "setting": "PND 35, THAL, 2 hours after acute 3 mg/kg injection", "result": "8.8715E-011"}, {"measurement": "CP 55,940 level, Mean", "setting": "PND 35, Total (all brain areas), 2 hours after acute 3 mg/kg injection", "result": "7.8540E-011"}, {"measurement": "CP 55,940 level, Direction (relative to Veh)", "setting": "PND 35 hypothalamus", "result": "↑"}, {"measurement": "CP 55,940 level, Magnitude (x Veh level)", "setting": "PND 35 hypothalamus", "result": "infinite"}, {"measurement": "CP 55,940 level: Magnitude (x Veh level)", "setting": "PND 35 midbrain, 3mg/kg", "result": "infinite"}, {"measurement": "CP 55,940 level: Direction (rel to Veh)", "setting": "PND 35 midbrain, 3mg/kg, one-way ANOVA", "result": "↑"}, {"measurement": "CP 55,940 mean level", "setting": "PND 35 striatum, 3 mg/kg i.p., 2 h", "result": "5.74E-11", "unit": "moles per gram"}, {"measurement": "brain area with highest levels of CP", "setting": "PND 50", "result": "HIPP"}, {"measurement": "CP 55,940 level, Mean", "setting": "PND 50, CER, 2 hours after acute 3 mg/kg injection", "result": "7.5674E-011"}, {"measurement": "CP 55,940 level, Mean", "setting": "PND 50, CTX, 2 hours after acute 3 mg/kg injection", "result": "8.6116E-011"}, {"measurement": "CP 55,940 level, Mean", "setting": "PND 50, HIPP, 2 hours after acute 3 mg/kg injection", "result": "1.2297E-010"}, {"measurement": "CP 55,940 level, Mean", "setting": "PND 50, HYP, 2 hours after acute 3 mg/kg injection", "result": "4.3769E-011"}, {"measurement": "CP 55,940 level, Mean", "setting": "PND 50, MID, 2 hours after acute 3 mg/kg injection", "result": "1.2091E-010"}, {"measurement": "CP 55,940 level, Mean", "setting": "PND 50, STEM, 2 hours after acute 3 mg/kg injection", "result": "8.3747E-011"}, {"measurement": "CP 55,940 level, Mean", "setting": "PND 50, STR, 2 hours after acute 3 mg/kg injection", "result": "5.8704E-011"}, {"measurement": "CP 55,940 level, Mean", "setting": "PND 50, THAL, 2 hours after acute 3 mg/kg injection", "result": "9.9312E-011"}, {"measurement": "CP 55,940 level, Mean", "setting": "PND 50, Total (all brain areas), 2 hours after acute 3 mg/kg injection", "result": "8.6438E-011"}, {"measurement": "brain area with highest levels of CP", "setting": "adult", "result": "CER"}, {"measurement": "CP 55,940 level, Direction (relative to Veh)", "setting": "[1]", "result": "↑"}, {"measurement": "CP 55,940 level, Magnitude (x Veh level)", "setting": "[1]", "result": "infinite"}, {"measurement": "CP 55,940 level, Mean", "setting": "adult cortex, 3mg/kg CP 55,940", "result": "1.85E-10"}, {"measurement": "CP 55,940 Direction (relative to Veh)", "setting": "[2]", "result": "↑"}, {"measurement": "CP 55,940 Magnitude (x Veh level)", "setting": "[2]", "result": "infinite"}, {"measurement": "CP 55,940 level, Mean", "setting": "adult female mice, brainstem, 3mg/kg CP 55,940", "result": "1.52E-10"}, {"measurement": "CP 55,940 level, Mean", "setting": "adult hypothalamus, 3 mg/kg CP 55,940", "result": "1.17E-10"}, {"measurement": "CP 55,940 Direction (relative to Veh)", "setting": "[3]", "result": "↑"}, {"measurement": "CP 55,940 Magnitude (x Veh level)", "setting": "[3]", "result": "infinite"}, {"measurement": "CP 55,940 level, Mean", "setting": "[4]", "result": "2.2E-10"}, {"measurement": "CP 55,940 Direction (relative to Veh)", "setting": "[4]", "result": "↑"}, {"measurement": "CP 55,940 Magnitude (x Veh level)", "setting": "[4]", "result": "infinite"}, {"measurement": "CP 55,940 level, Mean", "setting": "adult, CER, 2 hours after acute 3 mg/kg injection", "result": "2.8002E-010"}, {"measurement": "CP 55,940 level, Mean", "setting": "adult, CTX, 2 hours after acute 3 mg/kg injection", "result": "1.8513E-010"}, {"measurement": "CP 55,940 level, Mean", "setting": "adult, HIPP, 2 hours after acute 3 mg/kg injection", "result": "2.6840E-010"}, {"measurement": "CP 55,940 level, Mean", "setting": "adult, HYP, 2 hours after acute 3 mg/kg injection", "result": "1.1726E-010"}, {"measurement": "CP 55,940 level, Mean", "setting": "adult, MID, 2 hours after acute 3 mg/kg injection", "result": "2.2043E-010"}, {"measurement": "CP 55,940 level, Mean", "setting": "adult, STEM, 2 hours after acute 3 mg/kg injection", "result": "1.5203E-010"}, {"measurement": "CP 55,940 level, Mean", "setting": "adult, STR, 2 hours after acute 3 mg/kg injection", "result": "2.0821E-010"}, {"measurement": "CP 55,940 level, Mean", "setting": "adult, THAL, 2 hours after acute 3 mg/kg injection", "result": "2.0002E-010"}, {"measurement": "CP 55,940 level, Mean", "setting": "adult, Total (all brain areas), 2 hours after acute 3 mg/kg injection", "result": "2.0394E-010"}, {"measurement": "brain area with lowest levels of CP", "setting": "all three age groups", "result": "HYP"}, {"measurement": "variation of CP levels among the eight brain regions", "setting": "all three age groups", "result": "twofold to threefold"}, {"measurement": "CP 55,940 level, Direction (relative to Veh)", "setting": "[5]", "result": "↑"}, {"measurement": "CP 55,940 level, Magnitude (x Veh level)", "setting": "[5]", "result": "infinite"}, {"measurement": "CP 55,940 level", "setting": "brainstem, PND35 female mice, 3mg/kg CP 55,940, mean", "result": "7.04E-11"}]}]}
